From patent US6403554B2, “Polyunsaturated fatty acid derivatives and their use” (Ardenia Investments Ltd., priority 1998, dated 2002)
Values joined by “and” are separate entries in the source; they are usually repeats but may differ in a detail not shown here. Equal entries are not always repeated. “Also recorded” adds a separate entry of the source.

B1: rat AFP: Alpha-fetoprotein isolated from neonatal rat serum; AFP of Examples 42-44 (protein, UniProt P02773 25-611, looked up)
Alpha-fetoprotein: RVLHTNEFGIESTLDSSQCPTEKNMFNVATIVVAQFVQDATKAEVNKMSSDALAAMKENTGDGCLENQLSVFLDEICHETELSNKYGFSGCCNQSGVERHQCLLARKKTAPDSVPPFHFPETAESCPAYEENRAMSINTFIYDVSKRNPFLYAPTILYLAAQYDKAVPACCKADNMEECFQTKRASMAKELREGSMLNEHVCAVIRKFGSRNLQAVLIIKLSQKFPKANITEIRKLALDVAHIHEQCCHGNAMECLQDGESVMTHMCSQQEILSSKTAECCKLPTIELGYCIIHAENGDKPEGLTLNPSEFLGDRNFAQFSSEEKLLFMASFLHEYSRNHPNLPVSVILKTAKSYQEILEKCSQSETPSKCQDNMEEELQKHIQESQALAKQSCNLYQKLGPYYLQNLFLIGYTRKAPQLTSAELIDLTGKMVSIASTCCQLSEEKRSACGEGLADIYIGHLCLRHEANPVNSGINHCCSSSYSNRRLCITSFLRDETYVPPPFSEDKFIFHKDLCQAQGRALQTMKQELLINLVKQKPEMTEEQHAAVTADFSGLLEKCCKDQDQEACFAKEGPKLISKTREALGV
B2: human AFP: Alpha-fetoprotein isolated from human cord blood by immunoaffinity chromatography; AFP of Examples 38-41 (protein, UniProt P02771 19-609, looked up)
Alpha-fetoprotein: RTLHRNEYGIASILDSYQCTAEISLADLATIFFAQFVQEATYKEVSKMVKDALTAIEKPTGDEQSSGCLENQLPAFLEELCHEKEILEKYGHSDCCSQSEEGRHNCFLAHKKPTPASIPLFQVPEPVTSCEAYEEDRETFMNKFIYEIARRHPFLYAPTILLWAARYDKIIPSCCKAENAVECFQTKAATVTKELRESSLLNQHACAVMKNFGTRTFQAITVTKLSQKFTKVNFTEIQKLVLDVAHVHEHCCRGDVLDCLQDGEKIMSYICSQQDTLSNKITECCKLTTLERGQCIIHAENDEKPEGLSPNLNRFLGDRDFNQFSSGEKNIFLASFVHEYSRRHPQLAVSVILRVAKGYQELLEKCFQTENPLECQDKGEEELQKYIQESQALAKRSCGLFQKLGEYYLQNAFLVAYTKKAPQLTSSELMAITRKMAATAATCCQLSEDKLLACGEGAADIIIGHLCIRHEMTPVNPGVGQCCTSSYANRRPCFSSLVVDETYVPPAFSDDKFIFHKDLCQAQGVALQTMKQEFLINLVKQKPQITEEQLEAVIADFSGLLEKCCQGQEQEVCFAEEGQKLISKTRAALGV

Legend:
Format in all cases: in vivo, C57B1/6 mice
[1] = system: antibody-forming cells (AFC) in the spleen; assay: Influence of AFP/compound complexes and their components on humoral immune response (AFC in spleen); settings: for Dose at which immunostimulating effect in vivo is displayed: compound in a complex with AFP
Experimental: 0.15 ml of AFP/Compound 3 complex was administered intravenously to 6 mice males of C57B1/6 line (weight 18-22 g) in the dose of […] of AFP and 45.5 μg of compound 3 per capita. Simultaneously suspension of 5·10^7 sheep erythrocytes was injected intraperitoneally (0.2 ml per capita). In the group with compound 3 mice were injected intravenously by one in the dose of 45.5 μg. Animals of group with AFP received 9 μg of AFP. Mice of control group were injected intravenously with equal volume of saline. Complex AFP/Compound 3 effect on humoral immune response was analyzed by counting the quantity of AFC in the spleen according to Cunningham (per 10^6 spleen cells and per spleen).
0.15 ml of AFP/Compound 2a complex (1:100) was administered intravenously to 6 mice males of C57B1/6 line (weight 18-22 g) in the dose of 9 μg of AFP and 45.5 μg of compound 2a per capita. Simultaneously, a suspension of 5·10^7 sheep erythrocytes was injected intraperitoneally (0.2 ml per capita). In the group with compound 2a mice were injected intravenously by one in the dose of 45.5 μg. Animals of group with AFP received 9 μg of AFP. Mice in the control group were injected intravenously with an equal volume of saline. The effect of the AFP/Compound 2a complex on humoral immune response was analyzed by counting the quantity of AFC in the spleen according to Cunningham (per 10^6 spleen cells and per spleen).
(§1) 0.15 ml of AFP/Compound 10 complex (1:200) was administered intravenously to 6 male mice of C57B1/6 line (weight 18-22 g) in the dose of 9 μg of AFP and 91 μg of compound 10 per capita. Simultaneously, a suspension of 5·10^7 sheep erythrocytes was injected intraperitoneally (0.2 ml per capita). In the group receiving compound 10 mice were injected intravenously by one in the dose of 91 μg. Animals in the group with AFP received 9 μg of AFP. Micein the control group were injected intravenously with an equal volume of saline. The effect of the AFP/Compound 10 complex on humoral immune response was analyzed by counting the quantity of AFC in the spleen according to Cunningham (per 10^6 spleen cells and per spleen).
as §1, with “AFP/Compound 14” for “AFP/Compound 10”, “compound 14” for “compound 10”, “group with” for “group receiving”, “Animals of” for “Animals in the”, “AFP. Mice in” for “AFP. Micein”
0.15 ml of AFP/Compound 7 complex (1:200) was administered intravenously to 6 male mice of C57B1/6 line (weight 18-22 g) in the dose of 9 μg of AFP and 91 μg of compound 7 per capita. Simultaneously, a suspension of 5·10^7 sheep erythrocytes was injected intraperitoneally (0.2 ml per capita). In the group with compound 7 mice were injected intravenously by one in the dose of 91 μg. Animals of group with AFP received 9 μg of AFP. Mice of control group were injected intravenously with equal volume of saline. AFP/Compound 7 complex effect on humoral immune response was analyzed by counting the quantity of AFC in the spleen according to Cunningham (per 10^6 spleen cells and per spleen).
0.15 ml of AFP/Compound 15 complex (1:200) was administered intravenously to 6 mice males of C57B1/6 line (weight 18-22 g) in the dose of 9 μg of AFP and 91 μg of compound 15 per capita. Simultaneously, a suspension of 5·10^7 sheep erythrocytes was injected intraperitoneally (0.2 ml per capita). In the group receiving compound 15, the mice were injected intravenously by one in the dose of 91 μg. Animals in the AFP-group received 9 μg of AFP. […]

[2] = system: hemagglutinating antibodies in serum; assay: Humoral immune response: titers of hemagglutinating antibodies in serum; settings: serum, female mice
Experimental: (§2) 0.15 ml of compound 10 was administered intravenously to 6 mice females of CS7B1/6 line (weight 18-22 g) in doses of 45.5, 91 and 136.5 μg of compound 10 per capita for each testing group according to the dose. Simultaneously, a suspension of 5·10^7 sheep erythrocytes was injected intraperitoneally (0.2 ml per capita). Mice in the control group were injected intravenously with equal volume of saline. The effects of compound 10 on humoral immune response were analyzed both by counting the quantity of AFC in the spleen according to Cunningham (per 10^6 spleen cells and per spleen) and estimating the titers of hemagglutining antibodies in serum of the animals (Cunningham A. J., Nature, 1965, Vol.207, No 5001. P.1106-1107), while the titers of hemagglutinating antibodies were evaluated according to litterature (Evans J. et al., Cell, 1974; Vol 3., p.153-158, Feizi T., Menger E., Transfusion, 1970, Vol. 10, p.33-35,).
(§3) 0.15 ml of compound 11 was administered intravenously to 6 female mice of the C57B1/6 line (weight 18-22 g) in doses of 45.5, 91 and 136.5 μg of compound 11 per capita for each testing group according to the dose. Simultaneously, a suspension of 5·10^7 sheep erytrocytes was injected intraperitoneally (0.2 ml per capita). Mice in the control group were injected intravenously with an equal volume of saline. The effects of compound 11 on humoral immune response was analysed both by counting the quantity of AFC in the spleen according to Cunningham (per 10^6 spleen cells and per spleen) and estimating the titers of hemagglutining antibodies in serum of the animals.
as §3, with “12” for “11”, “erythrocytes” for “erytrocytes”, “analyzed” for “analysed”
as §3, with “compound 8” for “compound 11”, “sheep erythrocytes” for “sheep erytrocytes”, “Mice of” for “Mice in”, “response were analyzed” for “response was analysed”
as §3, with “compound 3” for “compound 11”, “Mice of” for “Mice in”, “with” for “with an”, “response were” for “response was”
(§4) 0.15 ml of compound 4 was administered intravenously to 6 female mice of the C57B1/6 line (weight 18-22 g) in a doses of 45.5, 91 and 136.5 μg of compound 4 per capita for each testing group according to the dose. Simultaneously, a suspension of 5·10^7 sheep erythrocytes was injected intraperitoneally (0.2 ml per capita). […]

[3] = system: antibody-forming cells (AFC) in the spleen; assay: Humoral immune response: counting antibody-forming cells (AFC) in the spleen according to Cunningham, mice immunised with sheep erythrocytes; settings: compound alone
Experimental: as §2, §3
as §3, with “12” for “11”, “erythrocytes” for “erytrocytes”, “analyzed” for “analysed”
as §3, with “compound 8” for “compound 11”, “sheep erythrocytes” for “sheep erytrocytes”, “Mice of” for “Mice in”, “response were analyzed” for “response was analysed”
as §3, with “compound 3” for “compound 11”, “Mice of” for “Mice in”, “with” for “with an”, “response were” for “response was”
as §4

[4] = AFP alone 9 μg/mouse i.v., 5-th day, male mice

Molecule	Immunogenic activity ([1]; compound alone, 91 μg/mouse)	Dose at which immunostimulating effect in vivo is displayed [1]	Amount of hemagglutinins ([2]; 45.5 μg/mouse i.v.)	Amount of hemagglutinins ([2]; 91 μg/mouse i.v.)	Amount of hemagglutinins ([2]; 136.5 μg/mouse i.v.)	Immunogenic activity ([1]; compound alone, 45.5 μg/mouse)	Dose at which immunostimulating effect in vivo is displayed (micelle form) [3]	Relative amount of AFC (per 10^6 spleen cells) [1, 4]	Total AFC amount (per spleen) [1, 4]	Immunogenic activity ([1]; AFP alone, 9 μg/mouse)
CC/C=C\C/C=C\C/C=C\C/C=C\C/C=C\CCCC(=O)N[C@@H](COP(=O)(O)O)C(=O)O [Compound 14, N-eicosapentaenoyl-o-phospho-L-serine]	no immunogenic activity; also recorded: do not inhibit immunogenic activity	91 μg/mouse	6.5 ± 0.3 Log2 T	7.0 ± 0.3 Log2 T	7.2 ± 0.2 Log2 T					
CC/C=C\C/C=C\C/C=C\C/C=C\C/C=C\C/C=C\CCC(=O)N[C@@H](COP(=O)(O)O)C(=O)O [Compound 10, N-docosahexaenoyl-o-phospho-L-serine]	no immunogenic activity; also recorded: do not inhibit immunogenic activity	91 μg/mouse	7.8 ± 0.3 Log2 T	7.8 ± 0.3 Log2 T	8.5 ± 0.4 Log2 T					
CC1=C(/C=C/C(C)=C/C=C/C(C)=C\C(=O)N[C@@H](COP(=O)(O)O)C(=O)O)C(C)(C)CCC1 (stereo in doubt) [Compound 2a, N-(13-cis-retinoyl)-o-phospho-L-serine]		45.5 μg/mouse	7.2 ± 0.3 Log2 T	7.5 ± 0.2 Log2 T	8.2 ± 0.4 Log2 T	no immunogenic activity; also recorded: do not inhibit immunogenic activity	91 μg/mouse			
B1								521.4±49.1 and 507.2±27.5 and 346.1±26.8	59.7±5.1 ·10^3 and 64.6±6.8 ·10^3 and 34.1±3.3 ·10^3	no immunogenic activity; also recorded: do not inhibit immunogenic activity
B2										no immunogenic activity; also recorded: do not inhibit immunogenic activity
